# Earlier results in patent publication US20100092398A1, “ANTIMICROBIAL COMPOSITIONS AND APPLICATIONS THEREFORE” (priority 2004, published 2010).
# Conditions: range given for terpinen-4-ol
smiles,measurement,value
CC1=CCC(O)(C(C)C)CC1 (stereo not shown) [terpinen-4-ol],Relative density @ 20° C.,0.930 to 0.936 g/mL
